Patent US9403813B2, “Azetidine amide derivatives as orexin receptor antagonists” (ACTELION PHARMACEUTICALS LTD, priority 2013, dated 2016)

Columns and labels:
[1] = molecular target: human orexin-2 receptor (Homo sapiens (Human), UniProt O43614); test: Intracellular calcium measurements (FLIPR), antagonism of orexin-A response; assay type: cell-based; details: CHO cells expressing human orexin-2 receptor, 3 nM orexin-A, geometric mean if determined several times, read-out: IC50 OX2
Description: (§1) Antagonistic activities on both orexin receptors have been measured for each example compound using the following procedure:
(§2) In Vitro Assay: Intracellular Calcium Measurements:
(§3) Chinese hamster ovary (CHO) cells expressing the human orexin-1 receptor and the human orexin-2 receptor, respectively, are grown in culture medium (Ham F-12 with L-Glutamine) containing 300 μg/mL G418, 100 U/mL penicillin, 100 μg/mL streptomycin and 10% heat inactivated fetal calf serum (FCS). The cells are seeded at 20,000 cells/well into 384-well black clear bottom sterile plates (Greiner). The seeded plates are incubated overnight at 37° C. in 5% CO2. Human orexin-A as an agonist is prepared as 1 mM stock solution in MeOH:water (1:1), diluted in HBSS containing 0.1% bovine serum albumin (BSA), NaHCO3: 0.375 g/L and 20 mM HEPES for use in the assay at a final concentration of 3 nM.
(§4) Antagonists are prepared as 10 mM stock solution in DMSO, then diluted in 384-well plates using DMSO followed by a transfer of the dilutions into in HBSS containing 0.1% bovine serum albumin (BSA), NaHCO3: 0.375 g/L and 20 mM HEPES. On the day of the assay, 50 μL of staining buffer (HBSS containing 1% FCS, 20 mM HEPES, NaHCO3: 0.375 g/L, 5 mM probenecid (Sigma) and 3 μM of the fluorescent calcium indicator fluo-4 AM (1 mM stock solution in DMSO, containing 10% pluronic) is added to each well. The 384-well cell-plates are incubated for 50 min at 37° C. in 5% CO2 followed by equilibration at rt for 30 min before measurement.
(§5) Within the Fluorescent Imaging Plate Reader (FLIPR Tetra, Molecular Devices), antagonists are added to the plate in a volume of 10 μL/well, incubated for 120 min and finally 10 μL/well of agonist is added. Fluorescence is measured for each well at 1 second intervals, and the height of each fluorescence peak is compared to the height of the fluorescence peak induced by 3 nM orexin-A with vehicle in place of antagonist. The IC50 value (the concentration of compound needed to inhibit 50% of the agonistic response) is determined and may be normalized using the obtained IC50 value of an on-plate reference compound. Optimized conditions were achieved by adjustment of pipetting speed and cell splitting regime. The calculated IC50 values may fluctuate depending on the daily cellular assay performance. Fluctuations of this kind are known to those skilled in the art. In the case where IC50 values have been determined several times for the same compound, the geometric mean has been given.

[2] = molecular target: human orexin-1 receptor (Homo sapiens (Human), UniProt O43613); test: as above; assay type: cell-based; details: CHO cells expressing human orexin-1 receptor, 3 nM orexin-A, geometric mean if determined several times, read-out: IC50 OX1
Description: as §1, §2, §3, §4, §5

human orexin-1 receptor, sequence (O43613 whole entry): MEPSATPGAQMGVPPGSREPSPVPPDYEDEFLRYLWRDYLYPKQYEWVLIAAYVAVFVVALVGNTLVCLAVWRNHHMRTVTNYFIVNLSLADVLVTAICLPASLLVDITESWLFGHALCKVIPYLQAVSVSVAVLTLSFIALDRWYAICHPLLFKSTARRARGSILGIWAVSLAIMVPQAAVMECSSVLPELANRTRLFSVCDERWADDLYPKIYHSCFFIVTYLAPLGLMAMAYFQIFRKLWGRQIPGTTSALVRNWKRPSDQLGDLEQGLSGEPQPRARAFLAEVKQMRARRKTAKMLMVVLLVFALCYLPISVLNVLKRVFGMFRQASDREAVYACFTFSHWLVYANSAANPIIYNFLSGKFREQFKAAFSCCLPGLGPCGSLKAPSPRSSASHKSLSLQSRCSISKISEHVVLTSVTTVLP
human orexin-2 receptor, sequence (O43614 whole entry): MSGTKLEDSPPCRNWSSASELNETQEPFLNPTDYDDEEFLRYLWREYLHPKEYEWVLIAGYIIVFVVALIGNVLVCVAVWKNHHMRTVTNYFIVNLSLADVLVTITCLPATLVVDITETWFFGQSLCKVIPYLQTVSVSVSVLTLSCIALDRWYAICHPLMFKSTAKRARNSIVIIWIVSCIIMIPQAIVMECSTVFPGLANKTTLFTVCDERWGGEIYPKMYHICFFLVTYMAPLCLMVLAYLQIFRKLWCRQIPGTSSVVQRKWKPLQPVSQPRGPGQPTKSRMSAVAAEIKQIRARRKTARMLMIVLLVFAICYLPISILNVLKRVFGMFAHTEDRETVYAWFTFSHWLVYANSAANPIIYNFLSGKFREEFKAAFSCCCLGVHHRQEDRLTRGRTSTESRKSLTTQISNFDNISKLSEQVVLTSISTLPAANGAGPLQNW

IC50 [1]	IC50 [2]	SMILES
0.019 µM	1.22 µM	Cc1ccc(-n2nccn2)c(C(=O)N2CC[C@H]2c2nc(-c3ccccc3C)no2)c1 [Example 1, (5-Methyl-2-[1,2,3]triazol-2-yl-phenyl)-[(S)-2-(3-o-tolyl-[1,2,4]oxadiazol-5-yl)-azetidin-1-yl]-methanone]
0.009 µM	0.713 µM	Cc1ccc(-n2nccn2)c(C(=O)N2CC[C@H]2c2nc(-c3cccc(F)c3C)no2)c1 [Example 2, {(S)-2-[3-(3-Fluoro-2-methyl-phenyl)-[1,2,4]oxadiazol-5-yl]-azetidin-1-yl}-(5-methyl-2-[1,2,3]triazol-2-yl-phenyl)-methanone]
0.18 µM	2.11 µM	Cc1ccc(-c2noc([C@@H]3CCN3C(=O)c3cc(C)ccc3-n3nccn3)n2)cc1 [Example 3, (5-Methyl-2-[1,2,3]triazol-2-yl-phenyl)-[(S)-2-(3-p-tolyl-[1,2,4]oxadiazol-5-yl)-azetidin-1-yl]-methanone]
0.038 µM	1.3 µM	COc1ccccc1-c1noc([C@@H]2CCN2C(=O)c2cc(C)ccc2-n2nccn2)n1 [Example 4, {(S)-2-[3-(2-Methoxy-phenyl)-[1,2,4]oxadiazol-5-yl]-azetidin-1-yl}-(5-methyl-2-[1,2,3]triazol-2-yl-phenyl)-methanone]
0.025 µM	1.19 µM	COc1cccc(-c2noc([C@@H]3CCN3C(=O)c3cc(C)ccc3-n3nccn3)n2)c1 [Example 5, {(S)-2-[3-(3-Methoxy-phenyl)-[1,2,4]oxadiazol-5-yl]-azetidin-1-yl}-(5-methyl-2-[1,2,3]triazol-2-yl-phenyl)-methanone]
0.115 µM	0.472 µM	CCCOc1ccccc1-c1noc([C@@H]2CCN2C(=O)c2cc(C)ccc2-n2nccn2)n1 [Example 6, (5-Methyl-2-[1,2,3]triazol-2-yl-phenyl)-{(S)-2-[3-(2-propoxy-phenyl)-[1,2,4]oxadiazol-5-yl]-azetidin-1-yl}-methanone]
0.01 µM	0.12 µM	Cc1ccc(-n2nccn2)c(C(=O)N2CC[C@H]2c2nc(-c3cccc(Cl)c3C)no2)c1 [Example 7, {(S)-2-[3-(3-Chloro-2-methyl-phenyl)-[1,2,4]oxadiazol-5-yl]-azetidin-1-yl}-(5-methyl-2-[1,2,3]triazol-2-yl-phenyl)-methanone]
0.115 µM	3.43 µM	Cc1ccc(-n2nccn2)c(C(=O)N2CC[C@H]2c2nc(-c3c(C)cccc3F)no2)c1 [Example 8, {(S)-2-[3-(2-Fluoro-6-methyl-phenyl)-[1,2,4]oxadiazol-5-yl]-azetidin-1-yl}-(5-methyl-2-[1,2,3]triazol-2-yl-phenyl)-methanone]
0.01 µM	0.134 µM	CCOc1c(F)cccc1-c1noc([C@@H]2CCN2C(=O)c2cc(C)ccc2-n2nccn2)n1 [Example 9, {(S)-2-[3-(2-Ethoxy-3-fluoro-phenyl)-[1,2,4]oxadiazol-5-yl]-azetidin-1-yl}-(5-methyl-2-[1,2,3]triazol-2-yl-phenyl)-methanone]
0.017 µM	0.335 µM	Cc1ccc(-n2nccn2)c(C(=O)N2CC[C@H]2c2nc(-c3cc(C)ccc3C)no2)c1 [Example 10, {(S)-2-[3-(2,5-Dimethyl-phenyl)-[1,2,4]oxadiazol-5-yl]-azetidin-1-yl}-(5-methyl-2-[1,2,3]triazol-2-yl-phenyl)-methanone]
0.28 µM	2.32 µM	Cc1ccc(-n2nccn2)c(C(=O)N2CC[C@H]2c2nc(-c3cc(F)cc(F)c3)no2)c1 [Example 11, {(S)-2-[3-(3,5-Difluoro-phenyl)-[1,2,4]oxadiazol-5-yl]-azetidin-1-yl}-(5-methyl-2-[1,2,3]triazol-2-yl-phenyl)-methanone]
0.187 µM	2.49 µM	Cc1ccc(-n2nccn2)c(C(=O)N2CC[C@H]2c2nc(-c3ccc(F)c(F)c3)no2)c1 [Example 12, {(S)-2-[3-(3,4-Difluoro-phenyl)-[1,2,4]oxadiazol-5-yl]-azetidin-1-yl}-(5-methyl-2-[1,2,3]triazol-2-yl-phenyl)-methanone]
0.04 µM	1.16 µM	Cc1cccc(-c2noc([C@@H]3CCN3C(=O)c3cc(C)ccc3-n3nccn3)n2)c1 [Example 13, (5-Methyl-2-[1,2,3]triazol-2-yl-phenyl)-[(S)-2-(3-m-tolyl-[1,2,4]oxadiazol-5-yl)-azetidin-1-yl]-methanone]
0.04 µM	1.04 µM	Cc1ccc(-n2nccn2)c(C(=O)N2CC[C@H]2c2nc(-c3ccccc3Cl)no2)c1 [Example 14, {(S)-2-[3-(2-Chloro-phenyl)-[1,2,4]oxadiazol-5-yl]-azetidin-1-yl}-(5-methyl-2-[1,2,3]triazol-2-yl-phenyl)-methanone]
0.015 µM	0.116 µM	Cc1ccc(-n2nccn2)c(C(=O)N2CC[C@H]2c2nc(-c3ccccc3OC(F)(F)F)no2)c1 [Example 15, (5-Methyl-2-[1,2,3]triazol-2-yl-phenyl)-{(S)-2-[3-(2-trifluoromethoxy-phenyl)-[1,2,4]oxadiazol-5-yl]-azetidin-1-yl}-methanone]
0.017 µM	0.641 µM	COc1c(F)cccc1-c1noc([C@@H]2CCN2C(=O)c2cc(C)ccc2-n2nccn2)n1 [Example 16, {(S)-2-[3-(3-Fluoro-2-methoxy-phenyl)-[1,2,4]oxadiazol-5-yl]-azetidin-1-yl}-(5-methyl-2-[1,2,3]triazol-2-yl-phenyl)-methanone]
0.009 µM	0.439 µM	COc1cc(C(=O)N2CC[C@H]2c2nc(-c3cccc(F)c3OC)no2)c(-n2nccn2)cc1C [Example 17, {(S)-2-[3-(3-Fluoro-2-methoxy-phenyl)-[1,2,4]oxadiazol-5-yl]-azetidin-1-yl}-(5-methoxy-4-methyl-2-[1,2,3]triazol-2-yl-phenyl)-methanone]
0.005 µM	0.16 µM	Cc1cc(C(=O)N2CC[C@H]2c2nc(-c3ccccc3OC(F)(F)F)no2)c(-n2nccn2)cc1C [Example 18, (4,5-Dimethyl-2-[1,2,3]triazol-2-yl-phenyl)-{(S)-2-[3-(2-trifluoromethoxy-phenyl)-[1,2,4]oxadiazol-5-yl]-azetidin-1-yl}-methanone]
0.009 µM	0.044 µM	COc1c(F)cccc1-c1noc([C@@H]2CCN2C(=O)c2ccc(C)cc2-n2nccn2)n1 [Example 19, {(S)-2-[3-(3-Fluoro-2-methoxy-phenyl)-[1,2,4]oxadiazol-5-yl]-azetidin-1-yl}-(4-methyl-2-[1,2,3]triazol-2-yl-phenyl)-methanone]
0.033 µM	0.634 µM	COc1c(F)cccc1-c1noc([C@@H]2CCN2C(=O)c2ccc(C)cc2-n2nccn2)n1 [Example 20, {(S)-2-[3-(3-Fluoro-2-methoxy-phenyl)-[1,2,4]oxadiazol-5-yl]-azetidin-1-yl}-(4-methyl-2-[1,2,3]triazol-2-yl-phenyl)-methanone]
0.004 µM	0.173 µM	Cc1cc(C(=O)N2CC[C@H]2c2nc(-c3cccc(F)c3C)no2)c(-n2nccn2)cc1C [Example 21, (4,5-Dimethyl-2-[1,2,3]triazol-2-yl-phenyl)-{(S)-2-[3-(3-fluoro-2-methyl-phenyl)-[1,2,4]oxadiazol-5-yl]-azetidin-1-yl}-methanone]
0.023 µM	0.821 µM	Cc1ccc(C(=O)N2CC[C@H]2c2nc(-c3cccc(F)c3C)no2)c(-n2nccn2)c1 [Example 22, {(S)-2-[3-(3-Fluoro-2-methyl-phenyl)-[1,2,4]oxadiazol-5-yl]-azetidin-1-yl}-(4-methyl-2-[1,2,3]triazol-2-yl-phenyl)-methanone]
0.039 µM	1.42 µM	COc1cc(C(=O)N2CC[C@H]2c2nc(-c3ccccc3OC(F)(F)F)no2)c(-n2nccn2)cc1F [Example 23, (4-Fluoro-5-methoxy-2-[1,2,3]triazol-2-yl-phenyl)-{(S)-2-[3-(2-trifluoromethoxy-phenyl)-[1,2,4]oxadiazol-5-yl]-azetidin-1-yl}-methanone]
0.025 µM	0.963 µM	COc1cc(C(=O)N2CC[C@H]2c2nc(-c3cccc(Cl)c3C)no2)c(-n2nccn2)cc1F [Example 24, {(S)-2-[3-(3-Chloro-2-methyl-phenyl)-[1,2,4]oxadiazol-5-yl]-azetidin-1-yl}-(4-fluoro-5-methoxy-2-[1,2,3]triazol-2-yl-phenyl)-methanone]
